As usually defined, the Kd is the constant that tells how readily two partners part at equilibrium.

The target in test [1] is T1, FLT3 N841I (Homo sapiens, UniProt P36888, N841I).
T1 construct: host or cells: E. coli BL21-derived host (T7 phage) or HEK-293
T1 sequence (P36888 610-943 N841I limits assumed): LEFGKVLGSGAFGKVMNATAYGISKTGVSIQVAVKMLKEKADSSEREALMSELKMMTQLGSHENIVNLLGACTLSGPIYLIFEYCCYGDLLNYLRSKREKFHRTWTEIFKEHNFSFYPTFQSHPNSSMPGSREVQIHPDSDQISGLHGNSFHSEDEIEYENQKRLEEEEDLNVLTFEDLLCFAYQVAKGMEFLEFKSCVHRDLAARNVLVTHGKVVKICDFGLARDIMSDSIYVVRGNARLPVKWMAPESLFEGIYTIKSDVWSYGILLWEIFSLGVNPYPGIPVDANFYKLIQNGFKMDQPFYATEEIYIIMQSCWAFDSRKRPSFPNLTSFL
The test can be described thus: KINOMEscan KdElect competitive binding assay, FLT3 N841I. The note with it: tosylate salt; read-out: Binding Constant (Kd), FLT3 N841I. The text has this:
(§1) Competitive binding assay.
(§2) The lysates were then centrifuged and filtered.

In test [2] the target is T2, FLT3 (ITD, D835V) (Homo sapiens, UniProt P36888, D835V, form not given).
T2 construct: fused on or other part: DNA tag / T7 phage display tag for qPCR detection
T2 sequence (P36888 1-993 D835V): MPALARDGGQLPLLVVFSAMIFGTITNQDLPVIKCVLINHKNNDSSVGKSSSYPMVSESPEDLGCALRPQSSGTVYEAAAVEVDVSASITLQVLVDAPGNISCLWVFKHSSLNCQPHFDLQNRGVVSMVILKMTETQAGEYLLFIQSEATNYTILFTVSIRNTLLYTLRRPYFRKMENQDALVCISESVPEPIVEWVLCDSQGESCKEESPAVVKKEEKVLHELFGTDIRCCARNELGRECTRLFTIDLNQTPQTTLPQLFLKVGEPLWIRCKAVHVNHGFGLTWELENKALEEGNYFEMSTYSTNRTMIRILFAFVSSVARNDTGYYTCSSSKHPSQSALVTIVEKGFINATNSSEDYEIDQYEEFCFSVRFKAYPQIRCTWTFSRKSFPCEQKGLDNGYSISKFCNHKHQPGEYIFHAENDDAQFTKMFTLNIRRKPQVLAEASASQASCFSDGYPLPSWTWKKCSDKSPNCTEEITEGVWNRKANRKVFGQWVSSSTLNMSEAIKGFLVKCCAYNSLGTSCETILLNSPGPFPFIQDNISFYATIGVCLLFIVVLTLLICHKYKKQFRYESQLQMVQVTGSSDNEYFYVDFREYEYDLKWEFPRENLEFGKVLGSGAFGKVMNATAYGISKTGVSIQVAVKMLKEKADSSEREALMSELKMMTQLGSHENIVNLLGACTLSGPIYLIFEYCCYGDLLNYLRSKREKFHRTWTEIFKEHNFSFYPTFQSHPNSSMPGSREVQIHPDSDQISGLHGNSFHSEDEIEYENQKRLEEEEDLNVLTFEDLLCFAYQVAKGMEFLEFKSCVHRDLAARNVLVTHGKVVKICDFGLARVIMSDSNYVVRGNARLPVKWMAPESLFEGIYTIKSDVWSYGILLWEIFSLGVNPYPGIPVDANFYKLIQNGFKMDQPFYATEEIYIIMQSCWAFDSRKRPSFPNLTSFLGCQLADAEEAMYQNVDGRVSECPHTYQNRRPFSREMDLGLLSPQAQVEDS
The test can be described thus: KINOMEscan KdElect competitive binding assay, dual mutant FLT3 (ITD, D835V). To be noted: tosylate salt; read-out: Kd, FLT3 (ITD, D835V) double mutant.
From the text: as §1, §2

Take `COCCOc1ccc2c(c1)ncn2-c1ccc2cccc(N3CCC(N)CC3)c2n1` [CP-673,451]: the equilibrium dissociation constant (Kd) in test [1] worked out at 0.39 nM; in test [2] it was 0.015 nM.

For the origin of these results see patent US10463658B2, “Method of inhibiting FLT3 kinase” (AROG Pharmaceuticals, LLC, priority 2013, dated 2019).
